Measured values from patent publication US20240398805A1, “QUINAZOLINE DERIVED COMPOUNDS AS EGFR INHIBITORS AND THEIR USES THEREOF” (ACCUTAR BIOTECHNOLOGY INC., priority 2021, published 2024).

Legend:
Assay type in all cases: cell-based
[1] = test system: HCC827 cells; assay: Cell growth inhibition (CellTiter-Glo, 3 days) in HCC827; settings: Homo sapiens, 72 h, 3 days after administration
In short: (§1)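 Growth inhibition was scored by CellTiter-Glo luminescence after 3-day compound exposure at various concentrations. Cells were plated at 5000/well the day before treatment: A431 in DMEM and HCC827 in RPMI, each with 10% FBS.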

[2] = test system: HCC827-SVD cells (human EGFR exon 20 insertion mutant D770_N771 insSVD); assay: Cell growth inhibition (CellTiter-Glo, 3 days) in HCC827-SVD; settings: 72 h, 3 days after administration
In short: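 HCC827 cells carrying lentiviral codon-optimized EGFR D770_N771 insSVD, with endogenous EGFR knocked out by CRISPR (single clone), seeded at 5000 cells/well in RPMI with 10% FBS. Viability read by CellTiter-Glo luminescence.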

[3] = test system: HCC827-ASV cells (human EGFR exon 20 insertion mutant A769_D770insASV); assay: Cell growth inhibition (CellTiter-Glo, 3 days) in HCC827-ASV; settings: 72 h, 3 days after administration
In short: (§2)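 HCC827 cells lentivirally transduced with codon-optimized ASV or YVMA insertion mutants were seeded at 5000 cells/well in RPMI with 10% FBS and incubated overnight. Compound was added at various concentrations from a 10× stock in medium, with 3 days' incubation. Viability read by CellTiter-Glo luminescence.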

[4] = test system: HCC827-YVMA cells (human ERBB2 exon20 insertion mutant A775_G776ins YVMA); assay: Cell growth inhibition (CellTiter-Glo, 3 days) in HCC827-YVMA; settings: 72 h, 3 days after administration
In short: as §2

[5] = test system: A431 cells; assay: Cell growth inhibition (CellTiter-Glo, 3 days) in A431; settings: Homo sapiens, A-431, 72 h, 3 days after administration
In short: as §1

| Compound | GI50 [1] [µM] | GI50 [2] [µM] | GI50 [3] [µM] | GI50 [4] [µM] | GI50 [5] [µM] |
| --- | --- | --- | --- | --- | --- |
| C=CC(=O)N1CCC(Nc2cc3c(Nc4ccc(Oc5ccnc(N6CCC(C(F)(F)F)C6)c5)cc4F)ncnc3cc2OC)CC1 (centres unmarked) [Compound 150, 1-(4-((4-((2-fluoro-4-((2-(3-(trifluoromethyl)pyrrolidin-1-yl)pyridin-4-yl)oxy)phenyl)amino)-7-methoxyquinazolin-6-yl)amino)piperidin-1-yl)prop-2-en-1-one] | < 0.03 | < 0.03 | < 0.03 | < 0.03 | 0.1 to 0.3 |
| C=CC(=O)N1CCC(Nc2cc3c(Nc4ccc(Oc5ccnc(N6C[C@H](OC)[C@H](OC)C6)n5)cc4F)ncnc3cc2OC)CC1 [Compound 260, 1-(4-((4-((4-((2-((3R,4S)-3,4-dimethoxypyrrolidin-1-yl)pyrimidin-4-yl)oxy)-2-fluorophenyl)amino)-7-methoxyquinazolin-6-yl)amino)piperidin-1-yl)prop-2-en-1-one] | 0.1 to 0.3 | < 0.03 | < 0.03 | < 0.03 | ≥ 1 |
| C=C(F)C(=O)N1CCC(Nc2cc3c(Nc4ccc(Oc5ccn(-c6ccc(C)nc6)n5)cc4F)ncnc3cc2OC)CC1 [Example 25, 2-fluoro-1-(4-((4-((2-fluoro-4-((1-(6-methylpyridin-3-yl)-1H-pyrazol-3-yl)oxy)phenyl)amino)-7-methoxyquinazolin-6-yl)amino)piperidin-1-yl)prop-2-en-1-one] | ≥ 1 | ≥ 1 | ≥ 1 | ≥ 1 | ≥ 1 |
| C=CC(=O)N1CCC(Nc2cc3c(Nc4ccc(Oc5ccn(-c6ccc(C)cn6)n5)c(Cl)c4)ncnc3cc2OC)CC1 [Compound 16] | < 0.03 | < 0.03 | < 0.03 | < 0.03 | 0.3 to 0.6 |
| C=CC(=O)N1CCC(Nc2cc3c(Nc4ccc(Oc5ccnc(-c6nc(C)no6)c5)cc4F)ncnc3cc2OC)CC1 [Compound 191, 1-(4-((4-((2-fluoro-4-((2-(3-methyl-1,2,4-oxadiazol-5-yl)pyridin-4-yl)oxy)phenyl)amino)-7-methoxyquinazolin-6-yl)amino)piperidin-1-yl)prop-2-en-1-one] | 0.03 to 0.06 | < 0.03 | < 0.03 | < 0.03 | 0.3 to 0.6 |
| C=CC(=O)N1CCC(Nc2cc3c(Nc4ccc(Oc5nc(-c6nnc(C(C)C)o6)cs5)cc4F)ncnc3cc2OC)CC1 [Compound 4, 1-(4-((4-((2-fluoro-4-((4-(5-isopropyl-1,3,4-oxadiazol-2-yl)thiazol-2-yl)oxy)phenyl)amino)-7-methoxyquinazolin-6-yl)amino)piperidin-1-yl)prop-2-en-1-one] | 0.3 to 0.6 | 0.1 to 0.3 | 0.1 to 0.3 | 0.1 to 0.3 | 0.3 to 0.6 |
| C=CC(=O)N1CCC(Nc2cc3c(Nc4ccc(Oc5cc(-c6ccc(C)nc6)ccn5)cc4F)ncnc3cc2OC)CC1 [Compound 46, 1-[4-({4-[(2-fluoro-4-{[4-(6-methylpyridin-3-yl)pyridin-2-yl]oxy}phenyl)amino]-7-methoxyquinazolin-6-yl}amino)piperidin-1-yl]prop-2-en-1-one] | 0.1 to 0.3 | 0.03 to 0.06 | 0.06 to 0.1 | < 0.03 | ≥ 1 |
| C=CC(=O)N1CCC(Nc2cc3c(Nc4ccc(Oc5ccnc(N(C)C)c5)cc4F)ncnc3cc2OC)CC1 [Example 103, 1-(4-((4-((4-((2-(dimethylamino)pyridin-4-yl)oxy)-2-fluorophenyl)amino)-7-methoxyquinazolin-6-yl)amino)piperidin-1-yl)prop-2-en-1-one] | 0.03 to 0.06 | < 0.03 | < 0.03 | < 0.03 | 0.1 to 0.3 |
| C=CC(=O)N1CCC(Nc2cc3c(Nc4ccc(Oc5ccn(-c6cnc(C)c(F)c6)n5)cc4F)ncnc3cc2OCC)CC1 [Compound 13, 1-(4-((7-ethoxy-4-((2-fluoro-4-((1-(5-fluoro-6-methylpyridin-3-yl)-1H-pyrazol-3-yl)oxy)phenyl)amino)quinazolin-6-yl)amino)piperidin-1-yl)prop-2-en-1-one] | < 0.03 | < 0.03 | < 0.03 | < 0.03 | 0.3 to 0.6 |
| C=CC(=O)N1CCC(Nc2cc3c(Nc4ccc(Oc5ccnc(-c6csc(C)n6)c5)cc4F)ncnc3cc2OC)CC1 [Compound 97, 1-(4-((4-((2-fluoro-4-((2-(2-methylthiazol-4-yl)pyridin-4-yl)oxy)phenyl)amino)-7-methoxyquinazolin-6-yl)amino)piperidin-1-yl) prop-2-en-1-one] | 0.03 to 0.06 | < 0.03 | < 0.03 | < 0.03 | 0.3 to 0.6 |

The next lines start with the values.

| GI50 [1] [µM] | GI50 [2] [µM] | GI50 [3] [µM] | GI50 [4] [µM] | GI50 [5] [µM] | Compound |
| --- | --- | --- | --- | --- | --- |
| 0.3 to 0.6 | ≥ 1 | 0.1 to 0.3 | 0.3 to 0.6 | ≥ 1 | C=CC(=O)N1CCC(Oc2cc3c(Nc4ccc(Oc5cc(N6C[C@@H](C)O[C@@H](C)C6)ncc5Cl)cc4F)ncnc3cc2OC)CC1 [Example 166, 1-(4-((4-((4-((5-chloro-2-((2R,6S)-2,6-dimethylmorpholino)pyridin-4-yl)oxy)-2-fluorophenyl)amino)-7-methoxyquinazolin-6-yl)oxy)piperidin-1-yl)prop-2-en-1-one] |
| 0.6 to 1 | 0.06 to 0.1 | 0.03 to 0.06 | 0.06 to 0.1 | ≥ 1 | C=CC(=O)N1CCC(Nc2cc3c(Nc4ccc(Oc5ccnc(N6C[C@@H]7C[C@H]6CO7)c5)cc4F)ncnc3cc2OC)CC1 [Example 131, 1-(4-((4-((4-((2-((1S,4S)-2-oxa-5-azabicyclo[2.2.1]heptan-5-yl)pyridin-4-yl)oxy)-2-fluorophenyl)amino)-7-methoxyquinazolin-6-yl)amino)piperidin-1-yl)prop-2-en-1-one] |
| 0.1 to 0.3 | 0.1 to 0.3 | 0.1 to 0.3 | 0.1 to 0.3 | ≥ 1 | C=CC(=O)N1CCC(Oc2cc3c(Nc4ccc(Oc5ccnc(N6CC[C@@H](N(C)C)C6)c5)cc4F)ncnc3cc2OC)CC1 [Example 162, (R)-1-(4-((4-((4-((2-(3-(dimethylamino)pyrrolidin-1-yl)pyridin-4-yl)oxy)-2-fluorophenyl)amino)-7-methoxyquinazolin-6-yl)oxy)piperidin-1-yl)prop-2-en-1-one] |
| ≥ 1 | 0.1 to 0.3 | 0.3 to 0.6 | 0.6 to 1 | ≥ 1 | C=CC(=O)N1CCC(Nc2cc3c(Nc4ccc(Oc5ccnc(N6CCS(=O)(=O)CC6)c5)cc4F)ncnc3cc2OC)CC1 [Example 112, 1-(4-((4-((4-((2-(1,1-dioxidothiomorpholino)pyridin-4-yl)oxy)-2-fluorophenyl)amino)-7-methoxyquinazolin-6-yl)amino)piperidin-1-yl)prop-2-en-1-one] |
| ≥ 1 | 0.1 to 0.3 | 0.1 to 0.3 | 0.1 to 0.3 | ≥ 1 | C=CC(=O)N1CCC(Oc2cc3c(Nc4ccc(Oc5ccnc(N6C[C@@H](C)N(C)[C@@H](C)C6)c5)cc4F)ncnc3cc2OC)CC1 [Example 156, 1-(4-((4-((2-fluoro-4-((2-((3R,5S)-3,4,5-trimethylpiperazin-1-yl)pyridin-4-yl)oxy)phenyl)amino)-7-methoxyquinazolin-6-yl)oxy)piperidin-1-yl)prop-2-en-1-one] |
| 0.03 to 0.06 | < 0.03 | < 0.03 | < 0.03 | 0.06 to 0.1 | C=CC(=O)N1CCC(Nc2cc3c(Nc4ccc(Oc5ccnc(N6CC7C(C6)C7(F)F)c5)cc4F)ncnc3cc2OC)CC1 (centres unmarked) [Example 160, 1-(4-((4-((4-((2-(6,6-difluoro-3-azabicyclo[3.1.0]hexan-3-yl)pyridin-4-yl)oxy)-2-fluorophenyl)amino)-7-methoxyquinazolin-6-yl)amino)piperidin-1-yl)prop-2-en-1-one] |
| 0.6 to 1 | 0.6 to 1 | 0.6 to 1 | 0.3 to 0.6 | ≥ 1 | C=CC(=O)N1CCC(Nc2cc3c(Nc4ccc(Oc5ccnc(C(=O)N(C)C)c5)cc4F)ncnc3cc2OC)CC1 [Example 182, 4-(4-((6-((1-acryloylpiperidin-4-yl)amino)-7-methoxyquinazolin-4-yl)amino)-3-fluorophenoxy)-N,N-dimethylpicolinamide] |
| 0.3 to 0.6 | 0.03 to 0.06 | 0.03 to 0.06 | 0.03 to 0.06 | 0.6 to 1 | C=CC(=O)N1CCC(Nc2cc3c(Nc4ccc(Oc5ccnc(N6CCC(O)C(C)(C)C6)c5)cc4F)ncnc3cc2OC)CC1 (centres unmarked) [Example 171, 1-(4-((4-((2-fluoro-4-((2-(4-hydroxy-3,3-dimethylpiperidin-1-yl)pyridin-4-yl)oxy)phenyl)amino)-7-methoxyquinazolin-6-yl)amino)piperidin-1-yl)prop-2-en-1-one] |
| 0.1 to 0.3 | 0.03 to 0.06 | 0.06 to 0.1 | 0.06 to 0.1 | 0.6 to 1 | C=CC(=O)N1CCC(Nc2cc3c(Nc4ccc(Oc5ccnc(N6CCC[C@H]6C)c5)cc4F)ncnc3cc2OC)CC1 [Example 249, (R)-1-(4-((4-((2-fluoro-4-((2-(2-methylpyrrolidin-1-yl)pyridin-4-yl)oxy)phenyl)amino)-7-methoxyquinazolin-6-yl)amino)piperidin-1-yl)prop-2-en-1-one] |
